Reference: the supplement of paper PMC6045584
± gives the standard deviation of the averaged measurements.

Experiments:
Assay in all cases: surviving fraction relative to DMSO-only wells; higher = less growth inhibition
Settings in all cases: exposure time: 5 days
[1] = compound: CC(=O)NCC(=O)N1[C@@H]2CC[C@H]1c1ccc(Nc3ncc(C(F)(F)F)c(NC4CCC4)n3)cc12
Method in brief: (§1)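 After seeding at 250–500 cells per well in 384-well plates and a 24-hour wait, log-phase tumour cell lines were exposed without interruption for five days to inhibitors at 0.5, 1, 5, 10, 50, 100, 500 and 1000 nM. CellTiter-Glo luminescence was recorded after 10 minutes at room temperature. Viability is reported as surviving fraction, the luminescence normalised to the median of DMSO-only wells.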

[2] = compound: CC(=O)O[C@H]1C(=O)[C@@]2(C)[C@H]([C@H](OC(=O)c3ccccc3)[C@]3(O)C[C@H](OC(=O)[C@H](O)[C@@H](NC(=O)c4ccccc4)c4ccccc4)C(C)=C1C3(C)C)[C@]1(OC(C)=O)CO[C@@H]1C[C@@H]2O [PACLITAXEL]
Method in brief: as §1

[3] = compound: CC(=O)c1c(C)c2cnc(Nc3ccc(N4CCNCC4)cn3)nc2n(C2CCCC2)c1=O
Method in brief: as §1

[4] = compound: CC[C@@]1(O)C(=O)OCc2c1cc1n(c2=O)Cc2cc3ccccc3nc2-1 [CAMPTOTHECIN]
Method in brief: as §1

[5] = compound: COCC[n+]1c2c(n(Cc3cnccn3)c1C)C(=O)c1ccccc1C2=O [YM155]
Method in brief: as §1

Test System: SKBR3 BREAST
- surviving fraction ([1]; 0.5 nM): 1.09 ± 0.12
- surviving fraction ([1]; 1 nM): 0.942 ± 0.2
- surviving fraction ([1]; 5 nM): 1.07 ± 0.18
- surviving fraction ([1]; 10 nM): 1 ± 0.16
- surviving fraction ([1]; 50 nM): 0.762 ± 0.06
- surviving fraction ([1]; 100 nM): 0.892 ± 0.14
- surviving fraction ([1]; 500 nM): 1.13 ± 0.039
- surviving fraction ([1]; 1000 nM): 0.865 ± 0.17
- surviving fraction ([2]; 0.5 nM): 0.925 ± 0.13
- surviving fraction ([2]; 1 nM): 0.413 ± 0.061
- surviving fraction ([2]; 5 nM): 0.165 ± 0.0059
- surviving fraction ([2]; 10 nM): 0.157 ± 0.02
- surviving fraction ([2]; 50 nM): 0.135 ± 0.023
- surviving fraction ([2]; 100 nM): 0.139 ± 0.013
- surviving fraction ([2]; 500 nM): 0.123 ± 0.015
- surviving fraction ([2]; 1000 nM): 0.136 ± 0.028
- surviving fraction ([3]; 0.5 nM): 1.04 ± 0.16
- surviving fraction ([3]; 1 nM): 1.12 ± 0.066
- surviving fraction ([3]; 5 nM): 0.958 ± 0.06
- surviving fraction ([3]; 10 nM): 0.987 ± 0.22
- surviving fraction ([3]; 50 nM): 0.923 ± 0.056
- surviving fraction ([3]; 100 nM): 0.892 ± 0.12
- surviving fraction ([3]; 500 nM): 0.82 ± 0.085
- surviving fraction ([3]; 1000 nM): 0.855 ± 0.067
- surviving fraction ([4]; 0.5 nM): 0.83 ± 0.073
- surviving fraction ([4]; 1 nM): 0.806 ± 0.029
- surviving fraction ([4]; 5 nM): 0.757 ± 0.1
- surviving fraction ([4]; 10 nM): 0.529 ± 0.029
- surviving fraction ([4]; 50 nM): 0.222 ± 0.01
- surviving fraction ([4]; 100 nM): 0.166 ± 0.013
- surviving fraction ([4]; 500 nM): 0.0683 ± 0.0042
- surviving fraction ([4]; 1000 nM): 0.0517 ± 0.0049
- surviving fraction ([5]; 0.5 nM): 0.89 ± 0.03
- surviving fraction ([5]; 1 nM): 0.849 ± 0.055
- surviving fraction ([5]; 5 nM): 0.825 ± 0.024
- surviving fraction ([5]; 10 nM): 0.53 ± 0.071
- surviving fraction ([5]; 50 nM): 0.0403 ± 0.012
- surviving fraction ([5]; 100 nM): 0.0253 ± 0.0067
- surviving fraction ([5]; 500 nM): 0.0247 ± 0.0074
- surviving fraction ([5]; 1000 nM): 0.0243 ± 0.0058
